Laboratory results: US8637013B2, “Treatment of drug-related side effect and tissue damage by targeting the CD24-HMGB1-Siglec10 axis” (The Regents of The University of Michigan, priority 2009, dated 2014)
No end group written: not given here.

Tests used:
[1] = tested on: sialidase activity in the sera of sepsis mice; assay: Serum sialidase activity of CLP mice (Amplex Red Neuraminidase assay kit); type: biochemical, mouse; conditions: sera from CLP mice mixed with inhibitors prior to the assay
[2] = target: T1, CD24-Siglec 10 interaction (Homo sapiens, UniProt Q96LC7); assay: Inhibition of CD24-Siglec 10 interaction by sialosides (microplate binding assay); conditions: for Inhibition of CD24-Siglec 10 interaction: Siglec 10Fc preincubated with sialoside, then added to plate-bound CD24Fc
T1 construct: Recombinant protein consisting of human IgG Fc and extracellular domains of Siglec 10; purchased R&D Systems
T1 sequence (Q96LC7 17-550 limits assumed): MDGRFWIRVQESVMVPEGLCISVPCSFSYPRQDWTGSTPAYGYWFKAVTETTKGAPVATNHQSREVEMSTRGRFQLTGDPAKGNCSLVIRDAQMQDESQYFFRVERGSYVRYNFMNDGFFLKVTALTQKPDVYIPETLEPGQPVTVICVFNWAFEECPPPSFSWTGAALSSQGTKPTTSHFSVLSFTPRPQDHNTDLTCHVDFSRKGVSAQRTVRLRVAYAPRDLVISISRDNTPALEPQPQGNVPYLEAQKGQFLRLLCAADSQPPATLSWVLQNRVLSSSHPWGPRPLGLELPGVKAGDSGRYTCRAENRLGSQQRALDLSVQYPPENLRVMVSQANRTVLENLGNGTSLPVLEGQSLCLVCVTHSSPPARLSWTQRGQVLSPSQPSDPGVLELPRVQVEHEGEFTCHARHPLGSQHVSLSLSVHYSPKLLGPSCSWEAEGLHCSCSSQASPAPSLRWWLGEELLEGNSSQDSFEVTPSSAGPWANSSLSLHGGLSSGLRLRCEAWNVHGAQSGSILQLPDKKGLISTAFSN

[3] = tested on: AAP-induced liver damage in WT B6 mice; assay: AAP-induced liver damage in WT mice treated with CD24Fc; type: in vivo; conditions: AAP 16 mg/mouse, 5 hours after AAP, vs control IgG Fc
HMGB1 [4] = target: T2, HMGB1 (Homo sapiens, UniProt P09429); assay: Co-immunoprecipitation of HMGB1 with CD24-Fc; type: binding; conditions: vs control IgG-Fc; cation-dependent
T2 construct: the full-length HMGB-1 expression vector was transfected into TSA cells; FLAG; made in house; host or cells: TSA cells (purified protein)
T2 sequence (P09429 1-215): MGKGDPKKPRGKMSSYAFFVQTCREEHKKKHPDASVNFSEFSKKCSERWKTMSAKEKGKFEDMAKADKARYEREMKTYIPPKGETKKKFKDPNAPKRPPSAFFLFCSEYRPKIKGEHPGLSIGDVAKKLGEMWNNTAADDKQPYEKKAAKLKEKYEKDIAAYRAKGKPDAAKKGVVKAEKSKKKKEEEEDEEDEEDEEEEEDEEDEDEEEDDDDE

HMGB1 [5] = assay: Co-immunoprecipitation of HMGB1 with CD24-Fc; type: binding, human; conditions: FLAG-tagged constructs in COS7 cell lysates

O=C(CO)N[C@H]1[C@H]([C@H](O)[C@H](O)CO)OC(C(=O)O)=C[C@@H]1O [Neu5Gc2en, 2,3-dehydro-2-deoxy-N-glycolylneuraminic acid]
Inhibition of sialidase activity in the serum of sepsis mice [1]: partial inhibition

CC(=O)N[C@H]1[C@H]([C@H](O)[C@H](O)CO)O[C@@](O[C@H]2[C@@H](O)[C@@H](CO)O[C@@H](O[C@H]3[C@H](O)[C@@H](O)C(O)O[C@@H]3CO)[C@@H]2O)(C(=O)O)C[C@@H]1O (stereo partly drawn) [Neu5Acα2-3Lac]
Inhibition of CD24-Siglec 10 interaction [2]: efficient inhibition

CC(=O)N[C@H]1[C@H]([C@H](O)[C@H](O)CO)O[C@@](OC[C@H]2O[C@@H](O[C@H]3[C@H](O)[C@@H](O)C(O)O[C@@H]3CO)[C@H](O)[C@@H](O)[C@H]2O)(C(=O)O)C[C@@H]1O (stereo partly drawn) [Neu5Acα2-6Lac]
Relative potency in inhibiting CD24-Siglec 10 interaction ([2]; 2-6 versus 2-3 linked sialoside): more potent
Inhibition of CD24-Siglec 10 interaction [2]: efficient inhibition

CC(=O)N[C@@H]1C(O)C=C(C(=O)O)OC1[C@H](O)[C@H](O)CO (stereo partly drawn) [Compound 1, 2,3-dehydro-2-deoxy-N-acetylneuraminic acid]
Inhibition of sialidase activity in the serum of sepsis mice [1]: minimal effect

CD24Fc: fusion protein that binds to HMGB1 and Siglec 10 (SETTTGTSSNSSQSTSNSGLAPNPTNATTK; not fully specified (C-terminus); also: fused to dimerising Fc (not given here))
Inflammatory cytokines in serum (IL-6, IL-10, MCP-1, IFN-γ, TNF-α) [3]: massive reduction
Coimmunoprecipitation of recombinant HMGB-1 (HMGB1 [4]): specifically coimmunoprecipitated
Immunoprecipitation of box A-containing HMGB1 mutant (HMGB1 [5]): not the box A-containing mutant
Immunoprecipitation of full length HMGB1 and box B-containing mutant (HMGB1 [5]): immunoprecipitated
